The values that follow come from ChEMBL document CHEMBL4138047, “Recent advancements in the discovery of protein-protein interaction inhibitors of replication protein A” (Medchemcomm, 2017).

For data set [1], the target named is T1, Replication protein A 70 kDa DNA-binding subunit (Homo sapiens, UniProt P27694). Nature of the data set: Binding affinity to RPA70 (unknown origin) by FITC-labeled probe based fluorescence polarization anisotropy. A general note: Polarisation of emitted light reports the rotation of a fluorescent probe.
T1 sequence (P27694 whole entry): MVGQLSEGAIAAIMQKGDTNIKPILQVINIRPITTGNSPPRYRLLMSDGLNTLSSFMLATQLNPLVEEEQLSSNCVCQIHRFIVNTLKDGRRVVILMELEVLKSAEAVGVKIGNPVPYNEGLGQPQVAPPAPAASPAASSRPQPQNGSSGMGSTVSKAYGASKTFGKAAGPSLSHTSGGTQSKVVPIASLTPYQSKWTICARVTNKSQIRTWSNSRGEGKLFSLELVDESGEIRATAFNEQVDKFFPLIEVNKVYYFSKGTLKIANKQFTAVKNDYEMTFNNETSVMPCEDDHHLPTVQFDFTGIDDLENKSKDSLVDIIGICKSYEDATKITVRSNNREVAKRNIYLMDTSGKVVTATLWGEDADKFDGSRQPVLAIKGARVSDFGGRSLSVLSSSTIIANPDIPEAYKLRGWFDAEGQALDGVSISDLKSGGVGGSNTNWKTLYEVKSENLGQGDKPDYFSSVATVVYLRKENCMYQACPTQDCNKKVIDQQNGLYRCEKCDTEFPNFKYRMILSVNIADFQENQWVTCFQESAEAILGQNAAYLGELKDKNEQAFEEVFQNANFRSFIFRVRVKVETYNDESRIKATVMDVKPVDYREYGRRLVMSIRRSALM
In data set [2] the target is T1, Replication protein A 70 kDa DNA-binding subunit. Nature of the data set: Inhibition of GST-tagged X-rhodamine-labelled p53TAD2 binding to human recombinant RPA70 expressed in Escherichia coli BL21 by fluorescence anisotropy competition assay.
Data set [3] has the same target. Nature of the data set: Binding affinity to human recombinant RPA70 expressed in Escherichia coli BL21 using FPA by tryptophan fluorescence quenching assay.
Data set [4] in a line: Binding affinity to human recombinant RPA70 R41E/R43E mutant expressed in Escherichia coli BL21 using FPA by tryptophan fluorescence quenching assay.
Data set [5] is described as follows: Protein binding in human plasma at 1 ug/ml after 4 hrs by LC-MS/MS method. It counts as ADME, cell-free. The following applies: read-out: PPB (converted).
Data set [6] is described as follows: Apparent permeability in human Caco2 cells at 5 uM incubated for 120 mins by LC-MS/MS method. It counts as ADME, cell-based. The note with it: Caco-2. (Caco-2 cells form a polarised layer with tight junctions and transporters.)

Broadly, the Kd is the free concentration of one partner at which half of the binding sites on the other are occupied at equilibrium, for simple one-to-one binding. In data set [1], `Cc1ccc(C(=O)Nc2ccccc2C(=O)O)cc1S(=O)(=O)Nc1ccc(Br)cc1` showed a Kd of 30 µM.
On to `CC(C)C1=C[C@@]23CC[C@@H]4[C@](C)(CCC[C@@]4(C)C(=O)O)[C@H]2C[C@@H]1[C@@H](C(=O)O)[C@@H]3C(=O)O`, for which the figures for the Kd in data set [2], in data set [3] and in data set [4] were 9 µM, 29 µM and 230 µM, respectively.
By Papp is commonly meant the rate of passage across a membrane or cell layer, normalised by area and donor concentration. In turn, `Cc1ccc(C(=O)Nc2cc(Br)ccc2C(=O)O)cc1S(=O)(=O)Nc1ccc(Cl)c(Cl)c1` came in with a Kd in data set [1] of 0.81 µM. Besides, in data set [5], the fraction unbound at 4 h, 1 ug/ml was 0.002. The Papp at 2 h, 5 µM in data set [6] amounted to 29.2 ×10⁻⁶ cm/s.
